Experimental data from PMC3792051, “Polyenylpyrrole Derivatives Inhibit NLRP3 Inflammasome Activation and Inflammatory Mediator Expression by Reducing Reactive Oxygen Species Production and Mitogen-Activated Protein Kinase Activation” (PLoS ONE, 2013).

Columns and labels:
Assay type in all cases: cell-based, murine
[1] = test system: ATP-activated LPS-primed J774A.1 macrophages; assay: PKC-α and AKT phosphorylation by Western blot
Procedure: Cells were washed twice with ice-cold phosphate-buffered saline (PBS) and lysed on ice for 5 min with lysis buffer (20 mM Tris-HCl, pH 7.5, 150 mM NaCl, 1 mM Na 2EDTA, 1 mM EGTA, 1% Triton X-100, 2.5 mM sodium pyrophosphate, 1 mM beta-glycerophosphate, 1 mM Na 3VO4, 1 µg/ml of leupeptin, 1 mM PMSF, protease inhibitor cocktail). The lysate was then centrifuged at 12,000 x g at 4 °C for 10 min and the pellet discarded. […]
In (C), LPS-primed J774A.1 macrophages (1 × 10^6/ml; 1 ml) were incubated for 30 min with 20 µM compound 1h or DMSO (vehicle) followed by ATP (5 mM) stimulation for 0-60 min, then phosphorylation of PKC-α was analyzed by Western blotting and expressed as the fold increase measured as the intensity of the PKC-α band divided by that of the actin band normalized to the corresponding value for DMSO at 0 minutes.

[2] = test system: LPS-activated RAW 264.7 macrophages; assay: NO production inhibitory assay (Griess reaction)
Procedure: RAW 264.7 cells seeded in 24-well plates at a density of 5 × 10^5 cells/ml (1 ml) were incubated for 24 h with or without LPS (1 µg/ml) in the absence or presence of the test samples, then NO production was measured indirectly by analysis of nitrite levels using the Griess reaction.
To investigate the inhibitory effect of compounds 1h, 1i, and 1n on the LPS-induced inflammatory response, NO levels in the supernatants of RAW 264.7 macrophages incubated with DMSO (vehicle) or compound 1h, 1i, or 1n for 30 min before, and during, incubation for 24 h with LPS (1 µg/ml) were measured by the Griess reaction. […] We next investigated their effect on the expression of iNOS, the NO producing enzyme, using Western blots.
Figure 2 Effect of polyenylpyrrole derivatives on the expression of inflammatory mediators in LPS-stimulated RAW 264.7 macrophages. In (A) and (C), the cells (5 × 10^5/ml; 1 ml) were incubated for 30 min with 2.5-40 µM compound 1h, 1i, or 1n or DMSO (vehicle), then LPS (1 µg/ml) was added and incubation continued for 24 h, then NO (A) or IL-6 or TNF-α (C) in the culture medium was assayed by the Griess reaction or ELISA, respectively. In (B), cells (5 × 10^5/ml; 1 ml) were pretreated for 30 min with 2.5-40 µM compound 1h or DMSO, then LPS (1 µg/ml) was added and incubation continued for 24 h, then expression of iNOS and COX-2 was measured by Western blotting. The fold increase is the intensity of the band of interest divided by that of the actin band normalized to the corresponding value for the 0 LPS/0 inhibitor control.

[3] = test system: RAW-Blue cells (RAW 264.7 with NF-κB reporter gene); assay: NF-κB reporter assay (SEAP, QUANTI-Blue); settings: 2.5-40 µM 30 min, LPS 1 µg/ml 24 h
Procedure: RAW-Blue™ cells, RAW 264.7 macrophages stably expressing the gene for secreted embryonic alkaline phosphatase (SEAP) inducible by NF-κB, were seeded in 60 mm dishes at a density of 5 × 10^5 cells/ml (1 ml) and grown overnight in a 5% CO2 incubator at 37 °C. They were then pretreated with vehicle or compound 1h for 30 min, then LPS (1 µg/ml) was added and incubation continued for 24 h. The medium was then harvested and 20 µl aliquots mixed with 200 µl of QUANTI-Blue™ medium (InvivoGen) in 96-well plates and incubated at 37 °C for 15 min, then SEAP activity was assessed by measuring the optical density at 655 nm using an ELISA reader.
Following LPS stimulation, IκB in the complex is phosphorylated by IκB kinase (IKK), ubiquitinated, and rapidly degraded in proteasomes, thus releasing NF-κB [30].
Figure 6 Effect of compound 1h on NF-κB activation in LPS-activated macrophages. (A) RAW 264.7 macrophages or (B) J774A.1 macrophages (both 5 × 10^5/ml; 1 ml) were incubated for 30 min with 10-40 µM compound 1h or DMSO, then LPS (1 µg/ml) was added and incubation continued for 20 min, then levels of phosphorylated and total IKK-α and IκB-α were measured by Western blotting. (C) RAW 264.7 macrophages or (D) J774A.1 macrophages (both 5 × 10^5/ml; 1 ml) were treated as in A and B, then nuclear translocation of NF-κB was analyzed by ELISA. […]

O=c1cc(O)cc(/C=C/C=C/C=C/C=C/c2[nH]ccc2Cl)o1 [compound 1h]
ATP-induced PKC-α phosphorylation ([1]; LPS-primed J774A.1, 20 µM 30 min, ATP 5 mM 0-60 min): significant inhibition of ATP-induced PKC-α phosphorylation at 20-60 min
ATP-induced AKT phosphorylation ([1]; LPS-primed macrophages (data not shown)): did not reduce ATP-induced AKT phosphorylation
NO production by LPS-activated cells ([2]; 2.5-40 µM, 30 min before and during LPS 1 µg/ml 24 h): decreased NO production by LPS-activated cells in a dose-dependent manner
ED50 (inhibition of LPS-induced NO production) ([2]; RAW 264.7 macrophages, LPS 1 µg/ml, 24 h, Griess reaction): 15 ± 2 µM
NO levels produced by non-activated cells ([2]; compound alone, no LPS (data not shown)): did not alter NO levels produced by non-activated cells
NF-κB transcriptional activity (SEAP reporter) [3]: reduced
